Results published in ChEMBL document CHEMBL3112394, “Identification of the 5,5-dioxo-7,8-dihydro-6H-thiopyrano[3,2-d]pyrimidine derivatives as highly selective PDE4B inhibitors” (Bioorg Med Chem Lett, 2014).

Key:
Homo sapiens [1] = species on record: Homo sapiens; assay: Selectivity ratio of IC50 for full-length human PDE4D2 to IC50 for full-length human PDE4B2
[2] = molecular target: 3',5'-cyclic-AMP phosphodiesterase 4B (Homo sapiens, UniProt Q07343); assay: Inhibition of full-length human PDE4B2 assessed as cAMP hydrolysis preincubated for 20 mins followed by cAMP addition measured after 30 mins
Sequence of 3',5'-cyclic-AMP phosphodiesterase 4B (Q07343 whole entry): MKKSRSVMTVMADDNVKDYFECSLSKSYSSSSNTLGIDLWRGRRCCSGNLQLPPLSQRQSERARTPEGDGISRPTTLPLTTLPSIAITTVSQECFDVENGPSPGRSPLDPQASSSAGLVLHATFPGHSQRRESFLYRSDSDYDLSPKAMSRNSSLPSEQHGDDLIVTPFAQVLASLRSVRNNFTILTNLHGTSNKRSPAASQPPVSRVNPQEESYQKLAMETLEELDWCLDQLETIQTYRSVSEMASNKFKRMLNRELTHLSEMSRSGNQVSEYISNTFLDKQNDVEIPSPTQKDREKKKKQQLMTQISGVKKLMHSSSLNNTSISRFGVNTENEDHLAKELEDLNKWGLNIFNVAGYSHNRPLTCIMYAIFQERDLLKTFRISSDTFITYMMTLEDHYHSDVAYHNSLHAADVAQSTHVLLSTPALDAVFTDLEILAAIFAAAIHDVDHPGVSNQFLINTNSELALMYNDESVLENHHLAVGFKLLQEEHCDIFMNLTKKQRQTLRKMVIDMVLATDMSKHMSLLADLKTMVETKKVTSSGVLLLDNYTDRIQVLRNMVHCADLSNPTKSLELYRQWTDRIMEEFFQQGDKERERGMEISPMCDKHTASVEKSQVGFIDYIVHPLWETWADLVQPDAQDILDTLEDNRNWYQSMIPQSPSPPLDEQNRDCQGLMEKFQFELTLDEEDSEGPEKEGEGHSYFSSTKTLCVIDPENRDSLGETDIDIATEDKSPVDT

[3] = molecular target: T1, 3',5'-cyclic-AMP phosphodiesterase 4D (Homo sapiens, UniProt Q08499); assay: Inhibition of full-length human PDE4D2 assessed as cAMP hydrolysis preincubated for 20 mins followed by cAMP addition measured after 30 mins
T1 sequence (Q08499 whole entry): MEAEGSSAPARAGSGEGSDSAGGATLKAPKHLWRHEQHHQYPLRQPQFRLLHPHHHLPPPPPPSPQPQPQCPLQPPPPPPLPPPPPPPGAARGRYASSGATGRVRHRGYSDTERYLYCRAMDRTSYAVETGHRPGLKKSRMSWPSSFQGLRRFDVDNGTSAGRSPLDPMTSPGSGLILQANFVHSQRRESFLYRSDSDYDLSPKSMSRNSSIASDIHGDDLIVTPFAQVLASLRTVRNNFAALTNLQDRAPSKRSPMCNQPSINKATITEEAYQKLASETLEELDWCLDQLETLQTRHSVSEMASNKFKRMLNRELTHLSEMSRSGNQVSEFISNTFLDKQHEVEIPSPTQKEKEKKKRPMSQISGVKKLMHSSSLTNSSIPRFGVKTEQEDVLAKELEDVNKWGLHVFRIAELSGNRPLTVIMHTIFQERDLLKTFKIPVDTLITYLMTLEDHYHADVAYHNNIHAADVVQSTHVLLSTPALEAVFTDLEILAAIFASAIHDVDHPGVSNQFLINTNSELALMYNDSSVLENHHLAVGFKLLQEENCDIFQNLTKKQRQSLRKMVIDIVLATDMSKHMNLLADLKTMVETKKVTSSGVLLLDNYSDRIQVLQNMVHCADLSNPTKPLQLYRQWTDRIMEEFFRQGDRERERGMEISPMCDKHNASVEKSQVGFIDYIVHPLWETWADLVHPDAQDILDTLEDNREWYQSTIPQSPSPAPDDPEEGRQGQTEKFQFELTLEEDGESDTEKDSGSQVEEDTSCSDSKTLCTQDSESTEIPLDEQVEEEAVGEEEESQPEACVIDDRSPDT

[4] = molecular target: T1, 3',5'-cyclic-AMP phosphodiesterase 4D; assay: Inhibition of recombinant human PDE4D (78 to 508)
Homo sapiens [5] = species on record: Homo sapiens; assay: Selectivity ratio of IC50 for recombinant human PDE4D (78 to 508) to IC50 for recombinant human PDE4B (152 to 564)
[6] = Antiinflammatory activity in Balb/c mouse splenocytes assessed as inhibition of LPS-induced TNF-alpha production after 18 to 24 hrs; type: functional, cell-based; details: Splenocyte
[7] = 1-octanol-phosphate buffered saline distribution coefficient, log D of the compound at 200 uM at pH 7.4 after 30 mins by shake flask method; type: physicochemical
[8] = Permeability of the compound at 50 uM at pH 7.4 after 4 hrs by PAMPA; type: ADME; details: read-out: permeability
[9] = Terminal half life in mouse at 10 mg/kg, po; type: ADME, organism-based; set-up: dose 10 mg/kg, route oral; details: in vivo, read-out: beta t1/2 (converted)
[10] = AUC in mouse at 10 mg/kg, po; type: ADME, organism-based; set-up: dose 10 mg/kg, route oral; details: plasma
[11] = Cmax in mouse at 10 mg/kg, po; type: ADME, organism-based; set-up: dose 10 mg/kg, route oral; details: in vivo

Row | SMILES | Ratio IC50 (Homo sapiens [1]) | IC50 [2] [nM] | IC50 [3] [nM] | further results
1 | CC(=O)c1ccc(-c2nc3c(c(Nc4ccc(CC(=O)O)cc4)n2)SCCC3)cc1 | 29 | 34 | 1000 | 
2 | N#Cc1ccc(-c2nc3c(c(Nc4ccc(CC(=O)O)cc4)n2)SCCC3)cc1 | 9.7 | 30 | 290 | 
3 | CCCCNC(=O)Cc1ccc(Nc2nc(-c3ccccc3)nc3c2S(=O)(=O)CCC3)cc1 | 2.6 | 70 | 180 | IC50 [4]: 260 nM; Ratio IC50 (Homo sapiens [5]): 12
4 | O=C(O)Cc1ccc(Nc2nc(-c3ccccc3)nc3c2SCCC3)cc1 | 6.2 | 210 | 1300 | IC50 [4]: 1300 nM; Ratio IC50 (Homo sapiens [5]): 45
5 | O=C(O)Cc1ccc(Nc2nc(-c3ccc(Cl)cc3)nc3c2SCCC3)cc1 | 3.5 | 120 | 420 | 
6 | COc1ccc(-c2nc3c(c(Nc4ccc(CC(=O)O)cc4)n2)S(=O)(=O)CCC3)cc1 | 34 | 44 | 1500 | 
7 | O=C(O)Cc1ccc(Nc2nc(-c3cc4ccccc4o3)nc3c2S(=O)(=O)CCC3)cc1 | 55 | 20 | 1100 | 
8 | CN(C)c1ccc(-c2nc3c(c(Nc4ccc(CC(=O)O)cc4)n2)SCCC3)cn1 | 11 | 140 | 1600 | 
9 | CC(=O)c1ccc(-c2nc3c(c(Nc4ccc(CC(=O)O)cc4)n2)S(=O)(=O)CCC3)cc1 | 86 | 10 | 860 | 
10 | O=C(O)Cc1ccc(Nc2nc(-c3ccccc3)nc3c2S(=O)(=O)CCC3)cc1 | 3.7 | 150 | 550 | IC50 [4]: 2800 nM; Ratio IC50 (Homo sapiens [5]): 112
11 | O=C(O)Cc1ccc(Nc2nc(-c3ccc4c(F)cccc4c3)nc3c2S(=O)(=O)CCC3)cc1 | 31 | 14 | 440 | 
12 | COc1ccc(-c2nc3c(c(Nc4ccc(CC(=O)O)c(F)c4)n2)S(=O)(=O)CCC3)cc1Cl | 433 | 3 | 1300 | IC50 [6]: 11 nM
13 | CN(C)c1ccc(-c2nc3c(c(Nc4ccc(CC(=O)O)cc4)n2)SCCC3)cc1 | 21 | 38 | 790 | 
14 | COc1ccc(-c2nc3c(c(Nc4cc(Cl)c(CC(=O)O)cc4Cl)n2)S(=O)(=O)CCC3)cc1F | 12 | 49 | 600 | 
15 | COc1ccc(-c2nc3c(c(Nc4ccc(CC(=O)O)c(F)c4)n2)S(=O)(=O)CCC3)cc1 | 173 | 7.5 | 1300 | IC50 [6]: 96 nM
16 | COc1ccc(-c2nc3c(c(Nc4ccc(CC(=O)O)cc4)n2)S(=O)(=O)CCC3)cc1F | 100 | 10 | 1000 | 
17 | COc1ccc(-c2nc3c(c(Nc4ccc(CC(=O)O)c(Cl)c4)n2)S(=O)(=O)CCC3)cc1F | 20 | 64 | 1300 | 
18 | O=C(O)Cc1ccc(Nc2nc(-c3cc4ccccc4s3)nc3c2S(=O)(=O)CCC3)cc1 | 48 | 8.3 | 400 | 
19 | CN(C)c1ccc(-c2nc3c(c(Nc4ccc(CC(=O)O)cc4)n2)S(=O)(=O)CCC3)cn1 | 21 | 56 | 1200 | 
20 | COc1ccc(-c2nc3c(c(Nc4ccc(CC(=O)O)c(F)c4)n2)S(=O)(=O)CCC3)cc1F | 135 | 4.6 | 620 | logD at 0.5 h, 200 µM [7]: 0.8; Papp at 4 h, 50 µM [8]: 14.3 ×10⁻⁶ cm/s; half-life [9]: 2 h; AUC [10]: 2770 ng·h/mL; Cmax [11]: 1700 ng/mL; IC50 [6]: 18 nM
21 | COc1cccc(-c2nc3c(c(Nc4ccc(CC(=O)O)cc4)n2)SCCC3)c1 | 15 | 120 | 1800 | 
22 | COc1ccc(-c2nc3c(c(Nc4cc(F)c(CC(=O)O)cc4F)n2)S(=O)(=O)CCC3)cc1F | 81 | 16 | 1300 | 
23 | COc1ccc(-c2nc3c(c(Nc4ccc(CC(=O)O)cc4)n2)SCCC3)cc1Cl | 6.1 | 71 | 430 | 
24 | COc1ccc(-c2nc3c(c(Nc4ccc(CC(=O)O)cc4)n2)SCCC3)cc1 | 25 | 11 | 280 | 
25 | COc1ccc(-c2nc3c(c(Nc4cc(F)c(CC(=O)O)cc4Cl)n2)S(=O)(=O)CCC3)cc1F | 57 | 9.9 | 560 | 
26 | O=C(O)Cc1ccc(Nc2nc(-c3ccc(-c4ccccc4)cc3)nc3c2S(=O)(=O)CCC3)cc1 | 21 | 38 | 790 | 

Further molecules by falling IC50 [2], results first:

Row | Ratio IC50 (Homo sapiens [1]) | IC50 [2] [nM] | IC50 [3] [nM] | SMILES | further results
27 | 3.9 | 880 | 3400 | O=C(O)Cc1ccc(Nc2nc(-c3ccccc3F)nc3c2SCCC3)cc1 | 
28 | 15 | 250 | 3800 | COc1ccc(-c2nc3c(c(Nc4ccc(CC(=O)O)cc4)n2)S(=O)(=O)CCC3)cn1 | 
29 | 53 | 140 | 7400 | COc1ccc(-c2nc3c(c(Nc4ccc(CC(=O)O)cc4)n2)SCCC3)cn1 | 
30 | 16 | 140 | 2200 | COc1ccc(-c2nc3c(c(Nc4ccc(CC(=O)O)cc4)n2)SCCC3)c(F)c1F | 
31 | 8.3 | 120 | 1000 | O=C(O)Cc1ccc(Nc2nc(-c3ccc(F)cc3)nc3c2SCCC3)cc1 | 
32 | 3.8 | 78 | 300 | COc1ccc(-c2nc3c(c(Nc4ccc(CC(=O)NCC(C)(C)C)cc4)n2)S(=O)(=O)CCC3)cc1F | 
33 | 12 | 57 | 680 | O=C(O)Cc1ccc(Nc2nc(-c3cccc(F)c3)nc3c2SCCC3)cc1 | 
34 | 74 | 46 | 3400 | COc1ccc(-c2nc3c(c(Nc4ccc(CC(=O)O)cc4)n2)S(=O)(=O)CCC3)c(F)c1F | 
35 | 55 | 38 | 2100 | CN(C)c1ccc(-c2nc3c(c(Nc4ccc(CC(=O)O)cc4)n2)S(=O)(=O)CCC3)cc1 | 
36 | 9.7 | 30 | 290 | COc1cccc2cc(-c3nc4c(c(Nc5ccc(CC(=O)O)cc5)n3)S(=O)(=O)CCC4)ccc12 | 
37 | 27 | 19 | 520 | O=C(O)Cc1ccc(Nc2nc(-c3ccc4ccccc4c3)nc3c2S(=O)(=O)CCC3)cc1 | 
38 | 100 | 13 | 1300 | COc1ccc(-c2nc3c(c(Nc4ccc(CC(=O)O)cc4)n2)S(=O)(=O)CCC3)cc1Cl | 
39 | 171 | 8.2 | 1400 | COc1ccc(-c2nc3c(c(Nc4ccc(CC(=O)O)c(F)c4)n2)S(=O)(=O)CCC3)c(F)c1F | IC50 [6]: 131 nM
40 | 137 | 5.9 | 810 | O=C(O)Cc1ccc(Nc2nc(-c3ccc4ccccc4c3)nc3c2S(=O)(=O)CCC3)cc1F | IC50 [6]: 44 nM
41 | 112 | 5.2 | 580 | COc1ccc(-c2nc3c(c(Nc4cc(F)c(CC(=O)O)c(F)c4)n2)S(=O)(=O)CCC3)cc1F | 
42 | 158 | 3.8 | 600 | O=C(O)Cc1ccc(Nc2nc(-c3cc4ccccc4s3)nc3c2S(=O)(=O)CCC3)cc1F | IC50 [6]: 11 nM
